This data set in a line: Recrystallization of methionine in the presence of additives (procedure of Example 1): amount of foam and bulk density. The format is physicochemical. The following applies: bulk density of dried methionine; additive concentration 400 ppm. How it is done:
60 g of methionine, 305 g of water and 35 g of crude methionine filtrate were introduced into a flask and circulated via a heat exchanger by pumping at a temperature of 40° C. As a result of the potassium carbonate present in the crude methionine filtrate, the potassium ion concentration was ca. 7 g/kg. A solution, heated to 90° C., of 150 g of methionine in 990.5 ml of water and 109.5 g of crude methionine filtrate was added to this suspension at a rate of 18 ml/min, during which the temperature of the initial charge of suspension was kept at 40° C. After adding 650 ml of the hot solution, 500 ml of suspension were removed and then a further 500 ml of the hot solution were metered in at a rate of 18 ml/min. The resulting suspension was discharged, the amount of foam was determined, and the methionine was filtered off and washed with 300 ml of acetone. After drying the methionine, the bulk density was determined.
The recrystallization experiments were carried out in the presence of the following additives, the stated concentration being established by adding the additive to both starting solutions/suspensions. The concentration data give the total active ingredient content of the additive without water based on the total mass of the solution or suspension. Additive 1 was an aqueous mixture of antifoam and crystallization additive according to EP […] […]

The text below walks through data of patent publication US9464045B2, “Process for the preparation of methionine” (EVONIK DEGUSSA GmbH, priority 2012, dated 2016).

For “polyethoxylated (20 EO) sorbitan tristearate [Additive 24]”, the Bulk density was 616 g/L.
